Results taken from ChEMBL document CHEMBL4364281, “Design of wogonin-inspired selective cyclin-dependent kinase 9 (CDK9) inhibitors with potent in vitro and in vivo antitumor activity” (Eur J Med Chem, 2019).
Converted amounts (≈) assume the structure as drawn.

Key:
THP-1 = assay: Antiproliferative activity against human THP1 cells assessed as reduction in cell viability after 72 hrs by MTT assay; assay type: functional, cell-based; conditions: THP-1, 72 h
MV4-11 [1] = assay: Cell cycle arrest in human MV4-11 cells assessed as accumulation at S phase at 0.25 uM after 24 hrs propidium iodide staining based flow cytometry (reference value: 26.06%); assay type: functional
MV4-11 [2] = assay: cells; conditions: Homo sapiens, MV4-11, 72 h
Description: Antiproliferative activity against human MV4-11 cells assessed as reduction in cell viability after 72 hrs by MTT assay

MV4-11 [3] = assay: Induction of apoptosis in human MV4-11 cells assessed as early apoptotic cells at 0.25 uM after 24 hrs by Annexin-V/propidium iodide staining based flow cytometric method (reference value: 0.36%); assay type: functional
MV4-11 [4] = assay: Cell cycle arrest in human MV4-11 cells assessed as accumulation at G2 phase at 0.25 uM after 24 hrs propidium iodide staining based flow cytometry (reference value: 22.73%); assay type: functional
MV4-11 [5] = assay: Cell cycle arrest in human MV4-11 cells assessed as accumulation at S phase at 0.05 uM after 24 hrs propidium iodide staining based flow cytometry (reference value: 26.06%); assay type: functional
MV4-11 [6] = assay: Antitumor activity against human MV4-11 cells xenografted in BALB/c mouse assessed as tumour growth inhibition at 45 mg/kg, iv administered every other day for 21 days relative to control; assay type: functional; conditions: MV4-11, iv, 504 h, read-out: TGI
MV4-11 [7] = assay: Cell cycle arrest in human MV4-11 cells assessed as accumulation at G1 phase at 0.05 uM after 24 hrs by propidium iodide staining based flow cytometry (reference value: 41.20%); assay type: functional
L02 = assay: Cytotoxicity against human LO2 cells assessed as reduction in cell viability after 72 hrs by MTT assay; assay type: cell-based; conditions: L02, 72 h
[8] = Antiproliferative activity against human BGC803 cells assessed as reduction in cell viability after 72 hrs by MTT assay; assay type: functional, cell-based; conditions: BGC803, 72 h
MV4-11 [9] = assay: Cell cycle arrest in human MV4-11 cells assessed as accumulation at G2 phase at 1.25 uM after 24 hrs propidium iodide staining based flow cytometry (reference value: 22.73%); assay type: functional
MV4-11 [10] = assay: Induction of apoptosis in human MV4-11 cells assessed as viable cells at 1.25 uM after 24 hrs by Annexin-V/propidium iodide staining based flow cytometric method (reference value: 96.94%); assay type: functional; conditions: MV4-11, 24 h, read-out: Activity
MV4-11 [11] = assay: Induction of apoptosis in human MV4-11 cells assessed as late apoptotic cells at 0.05 uM after 24 hrs by Annexin-V/propidium iodide staining based flow cytometric method (reference value: 0.07%); assay type: functional
[12] = target: Cyclin-dependent kinase 9 (Homo sapiens) (UniProt P50750); assay: Inhibition of CDK9 in human MV4-11 cells assessed as inhibition of RNA polymerase 2 phosphorylation at S2 residue after 4 hrs by Western blot analysis; assay type: cell-based
CDK9/cyclin T1 = CDK9/cyclin T1 (Homo sapiens, UniProt P50750)
RPMI-8226 = assay: Antiproliferative activity against human RPMI8226 cells assessed as reduction in cell viability after 72 hrs by MTT assay; assay type: functional, cell-based; conditions: RPMI-8226, 72 h
physchem [13] = assay: physchem
Description: Intrinsic solubility of compound by potentiometric titration assay

MV4-11 [14] = assay: Cell cycle arrest in human MV4-11 cells assessed as accumulation at S phase at 1.25 uM after 24 hrs propidium iodide staining based flow cytometry (reference value: 26.06%); assay type: functional
physchem [15] = conditions: buffer, pH 7.4
Description: Hydrophobicity, log D of compound at pH 7.4

MV4-11 [16] = assay: Induction of apoptosis in human MV4-11 cells assessed as necrotic cells at 0.25 uM after 24 hrs by Annexin-V/propidium iodide staining based flow cytometric method (reference value: 2.64%); assay type: functional
MV4-11 [17] = assay: Induction of apoptosis in human MV4-11 cells assessed as late apoptotic cells at 1.25 uM after 24 hrs by Annexin-V/propidium iodide staining based flow cytometric method (reference value: 0.07%); assay type: functional
MV4-11 [18] = assay: Induction of apoptosis in human MV4-11 cells assessed as necrotic cells at 0.05 uM after 24 hrs by Annexin-V/propidium iodide staining based flow cytometric method (reference value: 2.64%); assay type: functional
MV4-11 [19] = assay: Induction of apoptosis in human MV4-11 cells assessed as decrease in MCL-1 expression after 4 hrs by Western blot analysis; assay type: functional, cell-based
MV4-11 [20] = assay: Induction of apoptosis in human MV4-11 cells assessed as increase in caspase-3 level after 24 hrs by Western blot analysis; assay type: functional, cell-based
MV4-11 [21] = assay: Cell cycle arrest in human MV4-11 cells assessed as accumulation at G1 phase at 1.25 uM after 24 hrs by propidium iodide staining based flow cytometry (reference value: 41.20%); assay type: functional
physchem [22] = conditions: methanesulfonic acid buffer, pH 4.5
Description: Solubility of compound in methanesulfonic acid buffer at pH 4.5

HL-60 = assay: Antiproliferative activity against human HL60 cells assessed as reduction in cell viability after 72 hrs by MTT assay; assay type: functional, cell-based; conditions: HL-60, 72 h
MV4-11 [23] = assay: Cell cycle arrest in human MV4-11 cells assessed as accumulation at G2 phase at 0.05 uM after 24 hrs propidium iodide staining based flow cytometry (reference value: 22.73%); assay type: functional
SW480 = assay: Antiproliferative activity against human SW480 cells assessed as reduction in cell viability after 72 hrs by MTT assay; assay type: functional, cell-based; conditions: SW480, 72 h
MV4-11 [24] = assay: Induction of apoptosis in human MV4-11 cells by Annexin-V/propidium iodide staining based flow cytometric method; assay type: functional, cell-based
MV4-11 [25] = assay: Induction of apoptosis in human MV4-11 cells assessed as decrease in c-MYC expression after 4 hrs by Western blot analysis; assay type: functional, cell-based
HT-29 = assay: Antiproliferative activity against human HT-29 cells assessed as reduction in cell viability after 72 hrs by MTT assay; assay type: functional, cell-based; conditions: HT-29, 72 h
HepG2 = assay: cells; conditions: Homo sapiens, HepG2, 72 h
Description: Antiproliferative activity against human HepG2 cells assessed as reduction in cell viability after 72 hrs by MTT assay

MV4-11 [26] = assay: Antitumor activity against human MV4-11 cells xenografted in BALB/c mouse assessed as tumour growth inhibition at 30 mg/kg, iv administered every other day for 21 days relative to control; assay type: functional; conditions: MV4-11, iv, 504 h, read-out: TGI
HEK293 = assay: Cytotoxicity against human HEK293 cells assessed as reduction in cell viability after 72 hrs by MTT assay; assay type: cell-based; conditions: HEK293, 72 h
MCF7 = assay: Antiproliferative activity against human MCF7 cells assessed as reduction in cell viability after 72 hrs by MTT assay; assay type: functional, cell-based; conditions: MCF7, 72 h
HCT-116 = assay: cells; conditions: Homo sapiens, HCT-116, 72 h
Description: Antiproliferative activity against human HCT116 cells assessed as reduction in cell viability after 72 hrs by MTT assay

MV4-11 [27] = assay: Induction of apoptosis in human MV4-11 cells assessed as necrotic cells at 1.25 uM after 24 hrs by Annexin-V/propidium iodide staining based flow cytometric method (reference value: 2.64%); assay type: functional
[28] = Toxicity in BALB/c mouse assessed as mortality at 15 to 45 mg/kg, iv administered every other day for 21 days; assay type: organism-based; conditions: in vivo, 504 h
BT-549 = assay: Antiproliferative activity against human BT549 cells assessed as reduction in cell viability after 72 hrs by MTT assay; assay type: functional, cell-based; conditions: BT-549, 72 h

Sequence of Cyclin-dependent kinase 9 (Homo sapiens) (P50750 whole entry): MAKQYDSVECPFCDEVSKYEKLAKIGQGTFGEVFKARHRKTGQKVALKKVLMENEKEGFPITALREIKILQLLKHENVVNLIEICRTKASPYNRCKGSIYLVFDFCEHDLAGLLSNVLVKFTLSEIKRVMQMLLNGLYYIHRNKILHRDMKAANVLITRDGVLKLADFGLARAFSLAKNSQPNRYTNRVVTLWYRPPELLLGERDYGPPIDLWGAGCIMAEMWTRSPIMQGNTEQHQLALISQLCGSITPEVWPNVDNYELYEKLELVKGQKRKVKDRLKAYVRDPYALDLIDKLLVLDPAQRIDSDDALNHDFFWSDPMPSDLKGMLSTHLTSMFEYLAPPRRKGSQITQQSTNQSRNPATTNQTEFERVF
Sequence of CDK9/cyclin T1 (O60563 whole entry): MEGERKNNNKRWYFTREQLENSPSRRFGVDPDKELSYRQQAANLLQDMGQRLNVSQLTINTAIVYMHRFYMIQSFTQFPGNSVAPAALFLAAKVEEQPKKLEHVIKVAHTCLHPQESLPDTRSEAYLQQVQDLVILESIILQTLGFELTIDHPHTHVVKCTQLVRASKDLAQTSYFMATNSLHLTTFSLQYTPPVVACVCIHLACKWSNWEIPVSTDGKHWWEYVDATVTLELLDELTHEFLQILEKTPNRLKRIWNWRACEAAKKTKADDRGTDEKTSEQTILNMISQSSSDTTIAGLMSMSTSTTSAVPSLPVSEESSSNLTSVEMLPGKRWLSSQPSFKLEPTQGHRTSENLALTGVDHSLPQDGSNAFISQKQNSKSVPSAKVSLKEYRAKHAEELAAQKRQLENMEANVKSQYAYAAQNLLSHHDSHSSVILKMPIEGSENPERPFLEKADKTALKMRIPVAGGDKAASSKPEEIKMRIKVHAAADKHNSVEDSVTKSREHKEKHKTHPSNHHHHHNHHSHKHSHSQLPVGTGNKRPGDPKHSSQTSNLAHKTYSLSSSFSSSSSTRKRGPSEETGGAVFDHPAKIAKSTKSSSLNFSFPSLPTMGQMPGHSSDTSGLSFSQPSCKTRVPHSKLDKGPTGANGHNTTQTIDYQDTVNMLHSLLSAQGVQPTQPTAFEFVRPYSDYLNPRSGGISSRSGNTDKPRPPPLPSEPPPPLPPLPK
Sequence of CDK9/cyclin T1 (P50750 whole entry): as the sequence (P50750 whole entry) above

Compound: COc1cc(O)c2c(=O)cc(-c3ccc(N4CCN(C)CC4)cc3)oc2c1Oc1c(C)n[nH]c1C
- IC50 (THP-1): 790 nM
- Activity (MV4-11 [1]): 30.91%
- IC50 (MV4-11 [2]): 20 nM
- Activity (MV4-11 [3]): 21.25%
- Activity (MV4-11 [4]): 13.32%
- Activity (MV4-11 [5]): 33.91%
- inhibition in vivo at 45 mg/kg (MV4-11 [6]): 53%
- Activity (MV4-11 [7]): 48.27%
- IC50 (L02): 15100 nM
- IC50 [8]: 3120 nM
- Activity (MV4-11 [9]): 9.01%
- viability at 1.25 µM (MV4-11 [10]): 58.1%
- Activity (MV4-11 [11]): 5.53%
- inhibition [12]: Dose-dependent effect
- IC50 (CDK9/cyclin T1): 19.9 nM
- IC50 (RPMI-8226): 820 nM
- solubility (physchem [13]): 28 µg/mL (≈ 0.0588 mM)
- Activity (MV4-11 [14]): 28.21%
- logD (physchem [15]): 2.01
- Activity (MV4-11 [16]): 7.72%
- Activity (MV4-11 [17]): 9.05%
- Activity (MV4-11 [18]): 7.27%
- Activity (MV4-11 [19]): Dose-dependent effect
- Activity (MV4-11 [20]): Dose-dependent effect
- Activity (MV4-11 [21]): 62.77%
- solubility (physchem [22]): 4540 µg/mL (≈ 9.53 mM)
- IC50 (HL-60): 5210 nM
- Activity (MV4-11 [23]): 17.82%
- IC50 (SW480): 1860 nM
- Activity (MV4-11 [24]): Dose-dependent effect
- Activity (MV4-11 [25]): Dose-dependent effect
- IC50 (HT-29): 1800 nM
- IC50 (HepG2): 2670 nM
- inhibition in vivo at 30 mg/kg (MV4-11 [26]): 42.6%
- IC50 (HEK293): 22100 nM
- IC50 (MCF7): 480 nM
- IC50 (HCT-116): 390 nM
- Activity (MV4-11 [27]): 6.46%
- Activity [28]: Non-Toxic
- IC50 (BT-549): 1850 nM
